In patent US20210221787A1, “NIRAPARIB SOLID STATE FORM” (JOHNSON MATTHEY PUBLIC LIMITED COMPANY, priority 2018, published 2021):
Read-outs that look alike come from different tables or passages of the source.

Experiments:
[1] = for extended stability (retention of Form A by XRPD): with and without foil bag
From the text: “Stabilized” as used herein relates to an anhydrous form of the p-toluenesulfonic acid salt of niraparib that is capable of retaining its form for up to at least 4 months when held in storage in a sealed container with desiccant, with or without being stored in a foiled bag.
XRPD patterns are obtained using a Bruker D8 Advance equipped with a Cu Ka radiation source (λ=1.54 Å), a 9-position sample holder and a LYNXEYE super speed detector. Samples are placed on air sensitive silicon plate holders with zero-background with domes for analysis. One skilled in the art would recognize that the ° 2 θ values and the relative intensity values are generated by performing a peak search on the measured data and the d-spacing values are calculated by the instrument from the ° 2 θ values using Bragg's equation. One skilled in the art would further recognize that the relative intensity for the measured peaks may vary because of sample preparation, orientation and instrument used, for example.

[2] = cited from earlier work

Compound	extended stability ([1]; Form A not made under anhydrous conditions (Examples 1-3), compared with Form A made under anhydrous conditions)	extended stability (retention of Form A by XRPD) ([1]; made under anhydrous conditions (Example 4 or 5), sealed vials with desiccant, ambient, 30° C./65% RH or 40° C./75% RH)	extended stability (retention of Form A by XRPD) ([1]; stored only in sealed vials, without desiccant)	form conversion on DVS ([2]; DVS up to 95% RH)	hygroscopicity (DVS curve) ([2]; DVS)	DVS weight gain ([2]; up to 95% RH)
Cc1ccc(S(=O)(=O)O)cc1.NC(=O)c1cccc2cn(-c3ccc([C@@H]4CCCNC4)cc3)nc12 [Form A, p-toluenesulfonic acid salt of niraparib]	does not exhibit extended stability	at least 4 months	do not exhibit the extended stability			
Cc1ccc(S(=O)(=O)O)cc1.NC(=O)c1cccc2cn(-c3ccc([C@@H]4CCCNC4)cc3)nc12 [Form III, p-toluenesulfonic acid salt of niraparib]				converted to the monohydrate	very hygroscopic	approximately 15.8%
